{
  "source": "ChEMBL document CHEMBL4602701",
  "about": "(J Med Chem, 2020)",
  "key": {"[1]": {"molecular_target": "T1, Steroid 17-alpha-hydroxylase/17,20 lyase (Homo sapiens, UniProt P05093)", "T1 sequence (P05093 whole entry)": "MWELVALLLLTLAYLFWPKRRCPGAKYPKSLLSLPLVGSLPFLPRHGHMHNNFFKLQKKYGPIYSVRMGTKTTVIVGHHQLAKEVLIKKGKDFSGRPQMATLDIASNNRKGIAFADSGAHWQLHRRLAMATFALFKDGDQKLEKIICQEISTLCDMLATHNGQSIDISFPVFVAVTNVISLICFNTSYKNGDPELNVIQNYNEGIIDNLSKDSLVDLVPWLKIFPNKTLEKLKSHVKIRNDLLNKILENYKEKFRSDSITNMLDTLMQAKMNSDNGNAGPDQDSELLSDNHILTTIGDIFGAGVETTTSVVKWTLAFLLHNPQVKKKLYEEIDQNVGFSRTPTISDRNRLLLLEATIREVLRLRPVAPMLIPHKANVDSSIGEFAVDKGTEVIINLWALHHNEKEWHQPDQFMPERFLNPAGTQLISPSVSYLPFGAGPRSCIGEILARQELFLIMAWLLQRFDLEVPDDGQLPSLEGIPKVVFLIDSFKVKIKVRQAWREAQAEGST", "experiment": "Binding affinity to C-terminal 6-His-tagged human CYP17A1 expressed in Escherichia coli assessed as induction of type II binding spectral changes at 50 uM using 1 uM CYP17A1 by spectroscopy; call rule not given here"}, "[2]": {"molecular_target": "T1, Steroid 17-alpha-hydroxylase/17,20 lyase", "experiment": "Binding affinity to C-terminal 6-His-tagged human CYP17A1 expressed in Escherichia coli assessed as induction of spectral changes by measuring rate constant of first reaction at 20 uM using 2 uM CYP17A1 by spectroscopy"}, "[3]": {"molecular_target": "T1, Steroid 17-alpha-hydroxylase/17,20 lyase", "experiment": "Binding affinity to C-terminal 6-His-tagged human CYP17A1 expressed in Escherichia coli assessed as induction of spectral changes by measuring rate constant of second reaction at 20 uM using 2 uM CYP17A1 by spectroscopy"}},
  "data": [
    {"smiles": "CC(C)[C@](O)(c1ccc2cc(OC(F)F)c(OC(F)F)cc2c1)c1c[nH]nn1", "note": "[SEVITERONEL]", "values": [
      {"measurement": "Activity", "setting": "[1]", "result": "Active"},
      {"measurement": "K", "setting": "[2]", "result": "44 to 45", "unit": "s⁻¹"},
      {"measurement": "K", "setting": "[3]", "result": 1.9, "unit": "s⁻¹"}
    ]}
  ]
}
